US20110294736A1, “COMPOUNDS AND METHODS FOR THE TREATMENT OF AUTOIMMUNE AND INFLAMMATORY DISEASE” (THE PROVOST, FELLOWS AND SCHOLARS OF THE HOLY AND UNDIVIDED …, priority 2008, published 2011)

What was measured:
Spleen cells = assay: TLR agonist induced cytokines (ELISA) of spleen cells from treated mice; format: in vivo; conditions: TriDAP 100 μg/mouse/day i.p. 5 days vs PBS; LPS, CpG or Pam3Csk; 24 hours
Procedure: Mice treated with either PBS or TriDAP (100 μg/mouse/day i.p.) for 5 days. Spleen cells ([…]; 1×10^6/ml) were stimulated with medium alone (control), or with a Toll-like Receptor agonist selected from the following: the TLR4 agonist LPS (lipopolysaccharide) (100 ng/ml), the TLR9 agonist CpG (5 μg/ml), or the TL2 agonist Pam3Csk (500 ng/ml). Supernatants were collected after 24 hours and cytokine concentrations were quantified by ELISA.

EAE in SJL mice = assay: SJL mouse relapsing-remitting EAE model (PLP/CFA, PT), clinical score; format: in vivo; conditions: TriDAP 100 μg/mouse every 2 days from day 12, vs PBS, mean of 5-6 mice per group
Excerpt: EAE (experimental autoimmune encephalomyelitis) was induced in SJL mice by immunization with […] (PLP) in complete Freund's adjuvant (CFA) followed by Bordetella pertussis toxin (PT). SJL mice were developed by James Lambert at The Jackson Laboratory in 1955 from three different sources of Swiss Webster mice. The strain is characterized by its susceptibility to experimental autoimmune encephalomyelitis (EAE) for multiple sclerosis research, and therefore provides an improved model (over the MOG (myelin oligodendrocyte glycoprotein) model) for assessing the therapeutic potential of compounds. Mice were treated with PBS (control) or TriDAP (100 μg/mouse) every 2 days from day 12. Clinical scores were assessed daily and body weights were recorded. Disease severity was graded as follows: grade 0: normal, grade 1: limp tail, grade 2: wobbly gait; grade 3: hind limb weakness; grade 4: hind limb paralysis; grade 5: tetraparalysis/death. † indicates control mice were sacrificed due to severity of EAE disease.

[1] = test system: PLP-specific IL-17 and IFN-γ; assay: PLP-specific IL-17 and IFN-γ (ELISA) of restimulated lymph node or spleen cells, relapsing-remitting EAE model; format: in vivo; conditions: SJL mice, TriDAP 100 μg/mouse every 2 days from day 12, day 26, PLP 1-25 μg/ml
Procedure: EAE was induced in SJL mice by immunization with […] (PLP) in complete Freund's adjuvant (CFA) followed by pertussis toxin (PT). Mice were treated with PBS (control) or TriDAP (100 μg/mouse) every 2 days from day 12. Mice were sacrificed on day 26, and lymph node or spleen cells restimulated in vitro with PLP (1-25 μg/ml). After 3 days, IL-17 and IFNγ production in supernatants were quantified by ELISA.

NF-κB = conditions: higher than iE-DAP; previously shown; cited from earlier work
BMDC = assay: EBI3 and IL-27p28 mRNA in BMDC pretreated with MAPK/MEK1/2 inhibitors, then TriDAP and LPS or CpG; format: cell-based, murine
Procedure: BMDC (1×10^6) were pretreated with either the MAPK inhibitor, SB203580 ([…]) or the MEK1/2 inhibitor, U0126 ([…]) for 30 minutes prior to stimulation with TriDAP […] or medium alone. After 24 hours the cells were then stimulated with LPS (lipopolysaccharide) (100 ng/ml), CpG ([…]) or medium alone. EBI3 and IL-27p28 mRNA were evaluated by real time PCR normalized to 18S rRNA. Data are shown as fold induction over DC cultured in medium only (FIG. 9 (a) and FIG. 9 (b)).

[2] = test system: antigen presenting cells (PECs) activating MOG-specific T cells; assay: IFN-γ of MOG-specific T cells cultured with irradiated PECs of treated mice as antigen presenting cells; format: in vivo; conditions: TriDAP 100 μg/mouse/day i.p. 5 days vs PBS; MOG 20 μg/ml; 72 hours
Procedure: Mice were treated with either PBS or TriDAP (100 μg/mouse/day i.p.) for 5 days. Peritoneal exudate stimulator cells (PECs) were irradiated and used as antigen presenting cells (APC) for MOG-specific T cells. T cells from mice immunized with MOG (Myelin oligodendrocyte glycoprotein) and CFA (1×10^6/ml) were culture with PECs (1×10^6/ml) and MOG (20 μg/ml). Supernatants were collected after 72 hours and IFN-γ concentrations were quantified by ELISA.

[3] = test system: dendritic cells activating Th17 cells; assay: IL-17 of CD4 T cells cultured with LPS-stimulated dendritic cells with and without TriDAP; format: cell-based, mice; conditions: TriDAP 100 μg/ml; LPS 10 or 100 ng/ml; KLH 20 μg/ml; 72 hours
Procedure: CD4 T cells from mice immunized with MOG and LPS, were cultured in vitro with dendritic cells stimulated with LPS (10 or 100 ng/ml) with and without TriDAP (100 μg/ml) in the presence of KLH (20 μg/ml). Supernatants were collected after 72 hours and IL-17 concentrations were quantified by ELISA. *P<0.05, ***P<0.001, with and without TriDAP.

[4] = U0126 (5 mM) 30 minutes before TriDAP, LPS 100 ng/ml after 24 hours

SMILES: C[C@H](N)C(=O)N[C@H](CCC(=O)N[C@@H](CCC[C@@H](N)C(=O)O)C(=O)O)C(=O)O [Tri-DAP, L-alanyl-γ-D-glutamyl-meso-diaminopimelic acid]
- IL-10 secreted by spleen cells after re-stimulation with TLR agonists (Spleen cells): higher concentrations
- IL-27 secreted by spleen cells after re-stimulation with TLR agonists (Spleen cells): higher concentrations
- TGF-beta secreted by spleen cells after re-stimulation with TLR agonists (Spleen cells): higher concentrations
- clinical scores (EAE in SJL mice): reduction
- PLP-specific IL-17 levels ([1]; spleen and lymph node cells): on-going reduction
- PLP-specific IFN-gamma levels ([1]; spleen cells): on-going reduction
- ability to activate NF-κB relative to iE-DAP (NF-κB): 3 fold
- Tri-DAP synergy with LPS for EBI3 gene expression under inhibition of ERK (BMDC; [4]): greatly enhances
- Tri-DAP synergy with LPS for IL-27p28 gene expression under inhibition of ERK (BMDC; [4]): greatly enhances
- Tri-DAP induced or Tri-DAP and TLR agonist induced IL-27 production on addition of an ERK inhibitor (BMDC; dendritic cells, ERK inhibitor added): significantly enhances
- IFN-gamma secreted by antigen-specific T cells stimulated with APC of treated mice [2]: less
- ability of dendritic cells to activate IL-17 production by CD4 T cells [3]: significant reduction
